# Measured values taken from patent US6498125B2, “Pyridine ketones useful as herbicides” (Syngenta Participations AG, priority 1998, dated 2002).
# Experiments:
# [1] = system: Monocotyledonous and dicotyledonous test plants; assay: Example B1: pre-emergence herbicidal action, 2 kg of AS/ha; format: in vivo; details: 3 weeks, scale 1-9; for pre-emergence action rating, Avena: test plant Avena; for pre-emergence action rating, Cyperus: test plant Cyperus; for pre-emergence action rating, Setaria: test plant Setaria; for pre-emergence action rating, Sinapis: test plant Sinapis; for pre-emergence action rating, Solanum: test plant Solanum; for pre-emergence action rating, Stellaria: test plant Stellaria
# Method: Monocotyledonous and dicotyledonous test plants are sown in standard soil in plastic pots. Immediately after sowing, the test substances are sprayed on (500 l of water/ha) as an aqueous suspension (prepared from a 25% wettable powder (Example F3, b) according to WO 97/34485) or emulsion (prepared from a 25% emulsion concentrate (Example F1, c)), corresponding to a dosage of 2 kg of AS/ha. The test plants are then grown under optimum conditions in a greenhouse. After a test period of 3 weeks, the test is evaluated with a nine-level scale of ratings (1=complete damage, 9=no effect). Ratings of 1 to 4 (in particular 1 to 3) mean good to very good herbicidal action.
# [2] = system: Monocotyledonous and dicotyledonous test plants; assay: Example B2: post-emergence herbicidal action, 2 kg of AS/ha; format: in vivo; set-up: key: 1 = complete damage, 9 = no effect; details: 4- to 6-leaf stage, about 18 days, scale 1-9; for post-emergence action rating, Avena: test plant Avena; for post-emergence action rating, Setaria: test plant Setaria; for post-emergence action rating, Sinapis: test plant Sinapis; for post-emergence action rating, Solanum: test plant Solanum; for post-emergence action rating, Stellaria: test plant Stellaria
# Method: Monocotyledonous and dicotyledonous test plants are grown in plastic pots with standard soil in a greenhouse and, in the 4- to 6-leaf stage, are sprayed with an aqueous suspension of the test substances of the formula 1, prepared from a 25% wettable powder (Example F3, b) according to WO 97134485) or with an emulsion of the test substances of the formula I, prepared from a 25% emulsion concentrate (Example F1, c) according to WO 97/34485), corresponding to a dosage of 2 kg of AS/ha (500 l of water/ha). The test plants are then grown further under optimum conditions in a greenhouse. After a test period of about 18 days, the test is evaluated with a nine-level scale of rating (1=complete damage, 9=no effect). Ratings of 1 to 4 (in particular 1 to 3) mean good to very good herbicidal action. In this test, the compounds of the formula I show strong herbicidal action.
SMILES,"pre-emergence action rating, Avena [1]","pre-emergence action rating, Cyperus [1]","pre-emergence action rating, Setaria [1]","pre-emergence action rating, Sinapis [1]","pre-emergence action rating, Solanum [1]","pre-emergence action rating, Stellaria [1]","post-emergence action rating, Avena [2]","post-emergence action rating, Setaria [2]","post-emergence action rating, Sinapis [2]","post-emergence action rating, Solanum [2]","post-emergence action rating, Stellaria [2]"
COCc1nc(C(F)(F)F)ccc1C(=O)C1=C(O)C(C)(C)ON(C)C1=O [Compound 4.021],2,1,2,2,1,2,2,2,1,1,2
COCCc1nc(C(F)(F)F)ccc1C(=O)C1=C(O)C2CCC(C2)C1=O (stereo not shown) [Compound 1.023],2,2,2,1,1,2,2,2,1,2,2
Cc1nc(C(F)(F)F)ccc1C(=O)C1=C(OC(=O)c2ccccc2)C2CCC(C2)C1=O (stereo not shown) [Compound 1.402],2,1,1,2,1,2,2,2,1,2,2
Cc1nc(C(F)(F)Cl)ccc1C(=O)C1=C(O)C(C)(C)ON(C)C1=O [Compound 4.124],2,1,2,2,1,2,2,2,1,1,2
Cc1nc(C(F)(F)C(F)(F)F)ccc1C(=O)C1=C(O)C2CCC(C2)C1=O (stereo not shown) [Compound 1.109],2,2,2,2,1,3,2,2,1,2,2
Cc1nc(C(F)(F)Cl)ccc1C(=O)C1=C(O)C2CCC(C2)C1=O (stereo not shown) [Compound 1.195],2,1,1,1,1,2,2,2,1,2,2
O=C(C1=C(O)C2CCC(C2)C1=O)c1ccc(C(F)(F)F)nc1C1CC1 (stereo not shown) [Compound 1.042],4,2,2,1,1,4,2,2,1,2,2
O=C(C1=C(O)C2CCC(C2)C1=O)c1ccc(C(F)(F)F)nc1C(F)F (stereo not shown) [Compound 1.005],4,1,1,1,1,1,2,2,1,2,2
Cc1nc(C(F)(F)F)ccc1C(=O)C1=C([O-])C2CCC(C2)C1=O.[K+] (stereo not shown) [Compound 1.376],2,1,1,2,1,2,1,2,1,2,2
Cc1nc(C(F)(F)F)ccc1C(=O)C1=C(OC(=O)C2CC2)C2CCC(C2)C1=O (stereo not shown) [Compound 1.403],2,1,1,1,1,2,2,2,1,2,2
COCc1nc(C(F)(F)F)ccc1C(=O)C1=C(O)C2CCC(C2)C1=O (stereo not shown) [Compound 1.021],4,2,1,1,1,3,2,4,1,2,2
CCCc1nc(C(F)(F)F)ccc1C(=O)C1=C(O)C2CCC(C2)C1=O (stereo not shown) [Compound 1.012],–,–,–,–,–,–,3,2,1,2,2
Cc1nc(C(F)(F)F)ccc1C(=O)C1=C(O)C(C)(C)C=CC1=O [Compound 5.085],–,–,–,–,–,–,3,2,1,2,2
CCC1=CC(C)(C)C(O)=C(C(=O)c2ccc(C(F)(F)F)nc2C)C1=O [Compound 5.081],–,–,–,–,–,–,3,2,1,1,2
O=C(C1=C(O)C2CCC(C2)C1=O)c1ccc(C(F)(F)F)nc1 (stereo not shown) [Compound 1.001],–,–,–,–,–,–,3,2,1,2,2
CS(=O)(=O)Cc1nc(C(F)(F)F)ccc1C(=O)C1=C(O)C2CCC(C2)C1=O (stereo not shown) [Compound 1.026],–,–,–,–,–,–,3,1,1,1,2
Cc1cc(C(F)(F)F)ncc1C(=O)C1=C(O)C2CCC(C2)C1=O (stereo not shown) [Compound 1.362],–,–,–,–,–,–,3,2,1,2,2
CCc1nc(C(F)(F)F)ccc1C(=O)C1=C(O)C(C)(C)ON(C)C1=O [Compound 4.01],–,–,–,–,–,–,3,3,2,2,2
C#CCOc1nc(C(F)(F)F)ccc1C(=O)C1=C(O)C2CCC(C2)C1=O (stereo not shown) [Compound 1.048],–,–,–,–,–,–,2,1,1,1,2
O=C(C1=C(O)C2CCC(C2)C1=O)c1ccc(C(F)(F)F)nc1C(F)(F)F (stereo not shown) [Compound 1.008],–,–,–,–,–,–,2,2,1,2,2
